Reference: patent US20020028938A1, “Prostaglandin endoperoxide H synthase biosynthesis inhibitors” (priority 1997, published 2002)

Row | melting point | SMILES
1 | 102 to 103 °C | CC(C)CCC(C)Oc1c(-c2ccc(S(C)(=O)=O)cc2)cnn(-c2ccc(F)cc2)c1=O (stereo not drawn) [Example 429, 2-(4-Fluorophenyl)-4-(5-methyl-2-hexyloxy)-5-[4-(methylsulfonyl)phenyl]-3(2H)-pyridazinone]
2 | 183 to 184 °C | CS(=O)(=O)c1ccc(-c2cnn(CC(=O)c3csc4ccccc34)c(=O)c2-c2ccc(F)cc2)cc1 [Example 57, 2-[2-(Benzo[b]thien-3-yl)-2-oxoethyl]-4-(4-fluorophenyl)-5-[4-(methylsulfonyl)phenyl]-3(2H)-pyridazinone]
3 | 108 to 111 °C | CS(=O)(=O)c1ccc(-c2cnn(CC(F)(F)F)c(=O)c2SCc2ccccc2)cc1 [Example 285, 2-(2,2,2-Trifluoroethyl)-4-phenylmethylthio-5-[4-(methylsulfonyl)phenyl]-3(2H)-pyridazinone]
4 | 170 to 171 °C | CS(=O)(=O)c1ccc(-c2cnn(CCc3ccccc3)c(=O)c2-c2ccc(F)cc2)cc1 [Example 51, 2-Phenethyl-4-(4-fluorophenyl)-5-[4-(methylsulfonyl)phenyl]-3(2H)-pyridazinone]
5 | 166 to 168 °C | CS(=O)(=O)c1ccc(-c2cnn(-c3ccc(F)c(F)c3)c(=O)c2Cc2ccccc2)cc1 [Example 233, 2-(3,4-Difluorophenyl)-4-benzyl-5-[4-(methylsulfonyl)phenyl]-3(2H)-pyridazinone]
6 | 179 to 181 °C | CS(=O)(=O)c1ccc(-c2cnn(CC(F)(F)F)c(=O)c2Oc2ccc(C#N)cc2)cc1 [Example 264, 2-(2,2,2-Trifluoroethyl)-4-(4-cyanophenoxy)-5-[4-(methylsulfonyl)phenyl]-3(2H)-pyridazinone]
7 | 116 to 120 °C | CC(C)COc1c(-c2ccc(S(C)(=O)=O)cc2)cnn(-c2ccc(F)c(Cl)c2)c1=O [Example 537, 2-(3-Chloro-4-fluorophenyl)-4-(2-methyl-1-propoxy)-5-[4-(methylsulfonyl)phenyl]-3(2H)-pyridazinone]
8 | 134 to 139 °C | CS(=O)(=O)c1ccc(-c2cnn(CC(F)(F)F)c(=O)c2NC2CCCC2)cc1 [Example 296, 2-(2,2,2-Trifluoroethyl)-4-(cyclopentylamino)-5-[4-(methylsulfonyl)phenyl]-3(2H)-pyridazinone]
9 | 172 to 174 °C | CS(=O)(=O)c1ccc(-c2cnn(CC(F)(F)F)c(=O)c2NCCC#N)cc1 [Example 308, 2-(2,2,2-Trifluoroethyl)-4-(2-cyanoethylamino)-5-[4-(methylsulfonyl)phenyl]-3(2H)-pyridazinone]
10 | 234 to 236 °C | CS(=O)(=O)c1ccc(-c2cnn(-c3ccccc3C=O)c(=O)c2-c2ccc(F)cc2)cc1 [Example 163, 2-(2-Formylphenyl)-4-(4-fluorophenyl)-5-[4-(methylsulfonyl)phenyl]-3(2H)-pyridazinone]
11 | 237 to 239 °C | CS(=O)(=O)c1ccc(-c2cnn(CC(F)(F)F)c(=O)c2-c2ccc3c(c2)COC3=O)cc1 [Example 221, 2-(2,2,2-Trifluoroethyl)-4-(1-oxo-1,3-dihydro-2-benzofuran-5-yl)-5-[4-(methylsulfonyl)phenyl]-3(2H)-pyridazinone]
12 | 192 to 195 °C | CS(=O)(=O)c1ccc(-c2cnn(-c3ccc(F)cc3)c(=O)c2N2CCCC2)cc1 [Example 356, 2-(4-Fluorophenyl)-4-(1-pyrrolidinyl)-5-[4-(methylsulfonyl)phenyl]-3(2H)-pyridazinone]
13 | 213 to 216 °C | CS(=O)(=O)c1ccc(-c2cnn(-c3ccc(S(N)(=O)=O)cc3)c(=O)c2-c2ccc(F)cc2)cc1 [Example 186, 2-[4-(Aminosulfonyl)phenyl]-4-(4-fluorophenyl)-5-[4-(methylsulfonyl)phenyl]-3(2H)-pyridazinone]

Continued, compound first:

Row | SMILES | melting point
14 | CCN(CC)c1ccc(C(=O)Cn2ncc(-c3ccc(S(C)(=O)=O)cc3)c(-c3ccc(F)cc3)c2=O)cc1 [Example 44, 2-(4-Diethylaminophenacyl)-4-(4-fluorophenyl)-5-[4-(methylsulfonyl)phenyl]-3(2H)-pyridazinone] | 105 to 108 °C
15 | CC(C)(O)CCOc1c(-c2ccc(S(N)(=O)=O)cc2)cnn(-c2ccc(F)c(Cl)c2)c1=O [Example 474, 2-(3-Chloro-4-fluorophenyl)-4-(3-hydroxy-3-methyl-1-butoxy)-5-[4-(aminosulfonyl)phenyl]-3(2H)-pyridazinone] | 59 to 62 °C
16 | CC(C)(O)CCOc1c(-c2ccc(S(N)(=O)=O)cc2)cnn(-c2ccc(F)c(F)c2)c1=O [Example 472, 2-(3,4-Difluorophenyl)-4-(3-hydroxy-3-methyl-1-butoxy)-5-[4-(aminosulfonyl)phenyl]-3(2H)-pyridazinone] | 181 °C
17 | NS(=O)(=O)c1ccc(-c2cnn(Cc3ccccc3)c(=O)c2Cc2ccc(F)cc2)cc1 [Example 383, 2-Benzyl-4-(4-fluorobenzyl)-5-[4-(aminosulfonyl)phenyl]-3(2H)-pyridazinone] | 120 to 123 °C
18 | CC(C)(O)CCOc1c(-c2ccc(S(C)(=O)=O)cc2)cnn(-c2ccc(F)c(Cl)c2)c1=O [Example 473, 2-(3-Chloro-4-fluorophenyl)-4-(3-hydroxy-3-methyl-1-butoxy)-5-[4-(methylsulfonyl)phenyl]-3(2H)-pyridazinone] | 108 to 110 °C
19 | CS(=O)(=O)c1ccc(-c2cnn(-c3ccc(F)cc3)c(=O)c2-c2cccc(F)c2)cc1 [Example 458, 2-(4-Fluorophenyl)-4-(3-fluorophenyl)-5-[4-(methylsulfonyl)phenyl]-3(2H)-pyridazinone] | 199 to 201 °C
20 | CS(=O)(=O)c1ccc(-c2cnn(Cc3cccnc3)c(=O)c2-c2ccc(F)cc2)cc1 [Example 29, 2-(3-Pyridylmethyl)-4-(4-fluorophenyl)-5-[4-(methylsulfonyl)phenyl]-3(2H)-pyridazinone] | 160 to 161 °C
21 | CS(=O)(=O)c1ccc(-c2cnn(CC(F)(F)F)c(=O)c2OCc2ccccc2)cc1 [Example 270, 2-(2,2,2-Trifluoroethyl)-4-(phenylmethoxy)-5-[4-(methylsulfonyl)phenyl]-3(2H)-pyridazinone] | 121 to 123 °C
22 | Cc1ccc(-n2ncc(-c3ccc(S(C)(=O)=O)cc3)c(-c3ccc(F)cc3)c2=O)cc1 [Example 177, 2-(4-Methylphenyl)-4-(4-fluorophenyl)-5-[4-(methylsulfonyl)phenyl]-3(2H)-pyridazinone] | 190 to 192 °C
23 | CS(=O)(=O)c1ccc(-c2cnn(-c3cccc(Cl)c3)c(=O)c2SCc2ccccc2)cc1 [Example 359, 2-(3-Chlorophenyl)-4-(phenylmethylthio)-5-[4-(methylsulfonyl)phenyl]-3(2H)-pyridazinone] | 142 to 145 °C
24 | C[C@H](O)CCOc1c(-c2ccc(S(C)(=O)=O)cc2)cnn(-c2ccc(F)c(F)c2)c1=O [Example 546, (S)-2-(3,4-Difluorophenyl)-4-(3-hydroxy-1-butoxy)-5-[4-(methylsulfonyl)phenyl]-3(2H)-pyridazinone] | 128 to 130 °C
25 | CC(C)CCOc1c(-c2ccc(S(C)(=O)=O)cc2)cnn(-c2cccc(C(F)(F)F)c2)c1=O [Example 543, 2-[3-(Trifluoromethyl)phenyl]-4-(3-methyl-1-butoxy)-5-[4-(methylsulfonyl)phenyl]-3(2H)-pyridazinone] | 82 to 85 °C
26 | CS(=O)(=O)c1ccc(-c2cnn(-c3ccc(F)cc3)c(=O)c2COc2ccccc2)cc1 [Example 196, 2-(4-Fluorophenyl)-4-phenoxymethyl-5-[4-(methylsulfonyl)phenyl]-3(2H)-pyridazinone] | 42 to 75 °C
27 | CS(=O)(=O)c1ccc(-c2cnn(CC(F)(F)F)c(=O)c2N2CCCCC2)cc1 [Example 304, 2-(2,2,2-Trifluoroethyl)-4-(1-piperidinyl)-5-[4-(methylsulfonyl)phenyl]-3(2H)-pyridazinone] | 160 to 161 °C
28 | CS(=O)(=O)c1ccc(-c2cnn(-c3ccc(F)c(F)c3)c(=O)c2Cc2ccc(F)c(F)c2)cc1 [Example 255, 2-(3,4-Difluorophenyl)-4-(3,4-difluorobenzyl)-5-[4-(methylsulfonyl)phenyl]-3(2H)-pyridazinone] | 177 to 179 °C
29 | CS(=O)(=O)c1ccc(-c2cnn(CC(F)(F)F)c(=O)c2Nc2ccc(F)cc2)cc1 [Example 316, 2-(2,2,2-Trifluoroethyl)-4-(4-fluoroanilino)-5-[4-(methylsulfonyl)phenyl]-3(2H)-pyridazinone] | 158 to 160 °C
30 | CS(=O)(=O)c1ccc(-c2cnn(CC(F)(F)F)c(=O)c2N)cc1 [Example 294, 2-(2,2,2-Trifluoroethyl)-4-amino-5-[4-(methylsulfonyl)phenyl]-3(2H)-pyridazinone] | > 260 °C
31 | CC(C)(CO)COc1c(-c2ccc(S(C)(=O)=O)cc2)cnn(-c2ccc(F)c(F)c2)c1=O [Example 510, 2-(3,4-Difluorophenyl)-4-(3-hydroxy-2,2-dimethyl-1-propoxy)-5-[4-(methylsulfonyl)phenyl]-3(2H)-pyridazinone] | 161 to 162 °C
32 | CC(C)Oc1c(-c2ccc(S(C)(=O)=O)cc2)cnn(-c2ccc(F)cc2)c1=O [Example 200, 2-(4-Fluorophenyl)-4-(2-propoxy)-5-[4-(methylsulfonyl)phenyl]-3(2H)-pyridazinone] | 160 to 162 °C
33 | CC(C)CCc1c(-c2ccc(S(C)(=O)=O)c(F)c2)cnn(-c2ccc(F)c(F)c2)c1=O [Example 258, 2-(3,4-Difluorophenyl)-4-(3-methylbutyl)-5-[3-fluoro-4-(methylsulfonyl)phenyl]-3(2H)-pyridazinone] | 119 to 121 °C
34 | CS(=O)(=O)c1ccc(-c2cnn(Cc3ccccc3)c(=O)c2-c2ccc3c(c2)COC3=O)cc1 [Example 319, 2-Benzyl-4-(1-oxo-1,3-dihydro-2-benzofuran-5-yl)-5-[4-(methylsulfonyl)phenyl]-3(2H)-pyridazinone] | > 250 °C
35 | CC(C)(C)Sc1c(-c2ccc(S(C)(=O)=O)cc2)cnn(CC(F)(F)F)c1=O [Example 290, 2-(2,2,2-Trifluoroethyl)-4-(tert-butylthio)-5-[4-(methylsulfonyl)phenyl]-3(2H)-pyridazinone] | 186 to 189 °C
36 | CC=C(C)c1c(-c2ccc(S(C)(=O)=O)cc2)cnn(CC(F)(F)F)c1=O [Example 223, 2-(2,2,2-Trifluoroethyl)-4-(2-buten-2-yl)-5-[4-(methylsulfonyl)phenyl]-3(2H)-pyridazinone] | 175 to 180 °C
